# Measured values published in US9181234B2, “Antibacterial compounds” (priority 2010, dated 2015).
# Assays:
# [1] = system: Streptococcus pyogenes (Isolate ID ATCC 51339); assay: Antibacterial activity, MIC, S. pyogenes; format: cell-based; settings: Streptococcus pyogenes, ATCC51339, Gram positive strain; broth microdilution or agar dilution
# Summary of the method: (§1)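 Susceptibility testing run in liquid or on solid media, with MIC values obtained by the CLSI-described broth microdilution or agar dilution method.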
# physchem = settings: kinetic from dmso stock
# Summary of the method: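 DMSO doubling dilutions were diluted twenty-fold into 100 mM citrate (pH 4), PBS (pH 7.4) or carbonate-bicarbonate (pH 9). After 24 h equilibration at room temperature, absorbance was read at 620 nm. The reported value is the highest concentration without measurable precipitate.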
# [2] = system: Haemophilus influenzae (Isolate ID ATCC 49247); assay: Antibacterial activity, MIC, H. influenzae; format: cell-based; settings: Haemophilus influenzae, ATCC49247; Gram negative strain; broth microdilution or agar dilution
# Summary of the method: as §1
# [3] = system: Staphylococcus aureus (Isolate ID ATCC 29213); assay: Antibacterial activity, MIC, S. aureus; format: cell-based; settings: Staphylococcus aureus, ATCC29213, Gram positive strain; broth microdilution or agar dilution
# Summary of the method: as §1
# [4] = system: Enterococcus faecalis (Isolate ID ATCC 29212); assay: Antibacterial activity, MIC, E. faecalis; format: cell-based; settings: Enterococcus faecalis, ATCC29212; Gram positive strain; broth microdilution or agar dilution
# Description: Bacterial Assay: Determination of Antibacterial Activity
# Compounds of the invention were tested for antimicrobial activity by susceptibility testing in liquid or on solid media. MICs for compounds against each strain were determined by the broth microdilution or agar dilution method according to the guidelines of the Clinical Laboratories and Standards Institute, formerly the National Committee for Clinical Laboratory Standards (Clinical Laboratories and Standards Institute. Methods for Dilution Antimicrobial Susceptibility Tests for Bacteria That Grow Aerobically; Approved Standard—Seventh Edition. Document M7-A7. CLSI, Wayne, Pa., 2006; Clinical Laboratories and Standards Institute. The gram positive bacterial strains tested include S. aureus (Staphylococcus aureus (Isolate ID ATCC 29213)), E. faecalis (Enterococcus faecalis (Isolate ID ATCC 29212)) and S. pyogenes (Streptococcus pyogenes (Isolate ID ATCC 51339)). The gram negative bacterial strains tested include H. influenzae (Haemophilus influenzae (Isolate ID ATCC 49247))
# [5] = pH 7.4, aqueous buffer, Max Solubility
# [6] = pH 7.4, aqueous buffer, Solubility (pH 7.4)
# [7] = pH 7.4, aqueous buffer, Solubility Range
# [8] = pH 7.4, aqueous buffer, Solubility Range (maximum solubility)
# [9] = pH 9, aqueous buffer, Max Solubility
# [10] = pH 9, aqueous buffer, Solubility Range (maximum solubility)
MIC [1],solubility at 24 h (physchem; [5]),solubility at 24 h (physchem; [6]),solubility at 24 h (physchem; [7]),solubility at 24 h (physchem; [8]),MIC [2],MIC [3],MIC [4],solubility at 24 h (physchem; [9]),solubility at 24 h (physchem; [10]),Compound
≤ 0.25 µg/mL,400 µg/mL,400 µg/mL,400 to 800 µg/mL,400 to 800 µg/mL,1 to 16 µg/mL,≤ 0.25 µg/mL,≤ 0.25 µg/mL,–,–,CCNC(=O)Nc1nc2cc(-c3cnc(N4CCC(C)(C(=O)O)CC4)nc3)cc(-c3cccc(C#N)n3)c2s1 [Compound 32]
1 to 16 µg/mL,–,200 µg/mL,12.5 to 400 µg/mL,–,> 16 µg/mL,> 16 µg/mL,1 to 16 µg/mL,≥ 800 µg/mL,> 800 µg/mL,CCNC(=O)Nc1nc2cc(-c3cnc(N4CCC(C)(C(=O)O)CC4)nc3)cc(-n3ccnc3)c2s1 [Compound 33]
≤ 0.25 µg/mL,–,50 µg/mL,12.5 to 400 µg/mL,–,1 to 16 µg/mL,≤ 0.25 µg/mL,≤ 0.25 µg/mL,100 µg/mL,12.5 to 400 µg/mL,CCNC(=O)Nc1nc2cc(-c3cnc(N4CCC(C)(C(=O)O)CC4)nc3)cc(-c3ncc(F)cn3)c2s1 [Compound 34]
≤ 0.25 µg/mL,–,50 µg/mL,12.5 to 400 µg/mL,–,1 to 16 µg/mL,≤ 0.25 µg/mL,≤ 0.25 µg/mL,400 µg/mL,400 to 800 µg/mL,CCNC(=O)Nc1nc2cc(-c3cnc(N4CCC(C)(C(=O)O)CC4)c(F)c3)cc(-c3ccccn3)c2s1 [Compound 36]
0.25 to 1 µg/mL,≥ 800 µg/mL,≥ 800 µg/mL,> 800 µg/mL,> 800 µg/mL,> 16 µg/mL,0.25 to 1 µg/mL,≤ 0.25 µg/mL,–,–,"CCNC(=O)Nc1nc2cc(-c3cnc(N4CCC(C)(C(=O)O)CC4)nc3)cc(C)c2s1 [Compound 38, 1-{5-[2-(3-Ethyl-ureido)-7-methyl-benzothiazol-5-yl]-pyrimidin-2-yl}-4-methyl-piperidine-4-carboxylic acid]"
≤ 0.25 µg/mL,≥ 800 µg/mL,≥ 800 µg/mL,> 800 µg/mL,> 800 µg/mL,1 to 16 µg/mL,0.25 to 1 µg/mL,≤ 0.25 µg/mL,–,–,CCNC(=O)Nc1nc2cc(-c3cnc(N4CCC(C)(C(=O)O)CC4)cn3)cc(-c3ccccn3)c2s1 [Compound 40]
≤ 0.25 µg/mL,≥ 800 µg/mL,≥ 800 µg/mL,> 800 µg/mL,> 800 µg/mL,1 to 16 µg/mL,≤ 0.25 µg/mL,≤ 0.25 µg/mL,–,–,"CCNC(=O)Nc1nc2cc(-c3cnc(N4CCC(C)(C(=O)O)CC4)nc3)cc(-c3cn(-c4ccccc4)nn3)c2s1 [Compound 41, 1-[5-[2-(ethylcarbamoylamino)-7-(1-phenyltriazol-4-yl)-1,3-benzothiazol-5-yl]pyrimidin-2-yl]-4-methyl-piperidine-4-carboxylic acid]"
≤ 0.25 µg/mL,–,25 µg/mL,12.5 to 400 µg/mL,–,1 to 16 µg/mL,0.25 to 1 µg/mL,≤ 0.25 µg/mL,100 µg/mL,12.5 to 400 µg/mL,CCNC(=O)Nc1nc2cc(-c3cnc(N4CCC(C)(C(=O)O)CC4)nc3)cc(-c3ccnc(OC)n3)c2s1 [Compound 42]
≤ 0.25 µg/mL,–,400 µg/mL,400 to 800 µg/mL,–,0.25 to 1 µg/mL,≤ 0.25 µg/mL,≤ 0.25 µg/mL,≥ 800 µg/mL,> 800 µg/mL,CCNC(=O)Nc1nc2cc(-c3cnc(N4CCC(C)(C(=O)O)CC4)nc3)cc(-c3ccnc(C)n3)c2s1 [Compound 43]
≤ 0.25 µg/mL,≥ 800 µg/mL,≥ 800 µg/mL,> 800 µg/mL,> 800 µg/mL,> 16 µg/mL,1 to 16 µg/mL,≤ 0.25 µg/mL,–,–,CCNC(=O)Nc1nc2cc(-c3cnc(N4CCC(C)(C(=O)O)CC4)nc3)cc(-c3ccnc(C#N)n3)c2s1 [Compound 44]
≤ 0.25 µg/mL,≥ 800 µg/mL,≥ 800 µg/mL,> 800 µg/mL,> 800 µg/mL,0.25 to 1 µg/mL,≤ 0.25 µg/mL,≤ 0.25 µg/mL,–,–,CCNC(=O)Nc1nc2cc(-c3cnc(N4CCC(C)(C(=O)O)CC4)nc3)cc(-c3cc(C)ncn3)c2s1 [Compound 45]
1 to 16 µg/mL,–,100 µg/mL,12.5 to 400 µg/mL,–,> 16 µg/mL,1 to 16 µg/mL,0.25 to 1 µg/mL,400 µg/mL,400 to 800 µg/mL,"CCNC(=O)Nc1nc2cc(-c3cnc(N4CCC(C)(C(=O)O)CC4)nc3)ccc2s1 [Compound 46, 1-{5-[2-(3-Ethyl-ureido)-benzothiazol-5-yl]-pyrimidin-2-yl}-4-methyl-piperidine-4-carboxylic acid]"
1 to 16 µg/mL,≥ 800 µg/mL,≥ 800 µg/mL,> 800 µg/mL,> 800 µg/mL,> 16 µg/mL,1 to 16 µg/mL,0.25 to 1 µg/mL,–,–,"CCNC(=O)Nc1nc2cc(-c3cnc(N4CCC(C)(C(=O)O)CC4)nc3)cc(C3CCOCC3)c2s1 [Compound 47, 1-[5-[2-(ethylcarbamoylamino)-7-tetrahydropyran-4-yl-1,3-benzothiazol-5-yl]pyrimidin-2-yl]-4-methyl-piperidine-4-carboxylic acid]"
≤ 0.25 µg/mL,–,400 µg/mL,400 to 800 µg/mL,–,1 to 16 µg/mL,≤ 0.25 µg/mL,≤ 0.25 µg/mL,≥ 800 µg/mL,> 800 µg/mL,CCNC(=O)Nc1nc2cc(-c3cnc(N4CCC(C)(C(=O)O)CC4)nc3)cc(-c3cc(OC(C)C)ncn3)c2s1 [Compound 48]
≤ 0.25 µg/mL,≥ 800 µg/mL,≥ 800 µg/mL,> 800 µg/mL,> 800 µg/mL,1 to 16 µg/mL,≤ 0.25 µg/mL,≤ 0.25 µg/mL,–,–,CCNC(=O)Nc1nc2cc(-c3cnc(N4CCC(C)(C(=O)O)CC4)nc3)cc(-c3cc(OCCOC)nc(C)n3)c2s1 [Compound 49]
0.25 to 1 µg/mL,≥ 800 µg/mL,≥ 800 µg/mL,> 800 µg/mL,> 800 µg/mL,1 to 16 µg/mL,> 16 µg/mL,0.25 to 1 µg/mL,–,–,"CCNC(=O)Nc1nc2cc(-c3cnc(N4CCC(C)(C(=O)O)CC4)nc3)cc(-c3cn(C)nn3)c2s1 [Compound 50, 1-[5-[2-(ethylcarbamoylamino)-7-(1-methyltriazol-4-yl)-1,3-benzothiazol-5-yl]pyrimidin-2-yl]-4-methyl-piperidine-4-carboxylic acid]"
≤ 0.25 µg/mL,≥ 800 µg/mL,≥ 800 µg/mL,> 800 µg/mL,> 800 µg/mL,0.25 to 1 µg/mL,≤ 0.25 µg/mL,≤ 0.25 µg/mL,–,–,CCNC(=O)Nc1nc2cc(-c3cnc(N4CCC(C)(C(=O)O)CC4)nc3)cc(-c3ncc(OC)cn3)c2s1 [Compound 51]
≤ 0.25 µg/mL,≥ 800 µg/mL,≥ 800 µg/mL,> 800 µg/mL,> 800 µg/mL,1 to 16 µg/mL,≤ 0.25 µg/mL,≤ 0.25 µg/mL,–,–,CCNC(=O)Nc1nc2cc(-c3cnc(N4CCC(C)(C(=O)O)CC4)nc3)cc(-c3cccc(OC)n3)c2s1 [Compound 52]
≤ 0.25 µg/mL,–,25 µg/mL,12.5 to 400 µg/mL,–,1 to 16 µg/mL,≤ 0.25 µg/mL,≤ 0.25 µg/mL,≥ 800 µg/mL,> 800 µg/mL,CCNC(=O)Nc1nc2cc(-c3cnc(N4CCC(C)(C(=O)O)CC4)nc3)cc(-c3ccc(F)c(C)n3)c2s1 [Compound 53]
